# Legend:
# [1] = system: NKT cells; test: IFNγ production in mice injected with glycolipid in the presence or absence of GD3 (FIG. 18); format: in vivo, wild-type C57BL/6 mice; conditions: C57BL/6 mice
# Description: OT-0010 is effective at restoring NKT cell function when wild-type C57BL/6 mice were injected intravenously with either αGalCer (KRN7000) or OT-0010 in the presence or absence of GD3.
# In addition, the glycolipids of the present invention are able to fully restore IFN-γ levels, and cause a restoration of NKT cells to a Th-1 response profile (FIG. 18). […] When α-GalCer is administered at a dosage of 3 μgm, only 50% NKT cell function is restored (FIG. 25). While not wishing to be bound by theory, the reason why the glycolipids of the present invention are able to restore NKT cells to a Th-1 response profile is because these glycolipids bind more strongly to CD1d. From a thermodynamic perspective, it is impossible for GD3 to displace these glycolipids from CD1d. […] Again, while not wishing to be bound by theory, it is believed that the glycolipids of the present invention bind more strongly to CD1d due to the incorporation of the -phenyl ring to the distal end of the aliphatic carbon chain attached to the amide group connected to the C1 glycoside linkage of the galactose sugar moiety. The terminal fluorine, —OMe, or —CF3 further enhance the binding of the glycolipids of the present invention to CD1d. The results disclosed in FIG. 18 are unexpected.
# [2] = system: NKT cells; conditions: cited from earlier work
compound,measurement,setting,value
CCCCCCCCCCCCCCCCCCCCCCCCCC(=O)N[C@@H](CO[C@H]1O[C@H](CO)[C@H](O)[C@H](O)[C@H]1O)[C@H](O)[C@H](O)CCCCCCCCCCCCCC [α-GalCer],IFNγ production,"[1]; glycolipid + GD3, intravenous",Inhibition of IFNγ production
same,restoration of IFN-γ levels,"[2]; FIG. 25, in the presence of GD3",does not restore IFN-γ levels
same,NKT cell function restored,"[2]; dosage of 3 μgm, in the presence of GD3, FIG. 25",50%
Ganglioside D3 [GD3],IFNγ production,"[1]; substance alone, intravenous",Inhibition of IFNγ production
same,"α-GalCer-induced cytokine production in vivo (IFN-γ, IL-4, IL-12)","[2]; 1 μg α-GalCer intravenously with or without GD3, serum ELISA",inhibits
same,IFN-γ production by NKT cells,"[2]; FIG. 25, effect of GD3",dramatic decrease in IFN-γ production
